pEC50, pIC50: −log10 of the molar value.
How the values were obtained:
[1] = biological target: Polymerase acidic protein (Influenza A virus (strain A/X-31 H3N2), UniProt Q9IQ47); test: Inhibition of recombinant Influenza virus A/X-31 N-terminal RdRp PA subunit (1 to 217) expressed in Escherichia coli using single-stranded circular DNA plasmid M13mp18 as substrate after 2 hrs by agarose gel electrophoresis; set-up: species or system Influenza A virus (A/X-31(H3N2))
Influenza A virus [2] = test: Antiviral activity against Influenza A virus (A/PR/8/1934(H1N1)) infected in MDCK cells assessed as 1-log10 reduction in viral RNA copy number after 24 hrs by quantitative RT-PCR analysis; type: functional, organism-based; conditions: A/Puerto Rico/8/1934(H1N1)
[3] = Cytotoxicity against MDCK cells assessed as cell viability measured at 24 hrs by MTS assay; type: cell-based, Canis lupus familiaris; conditions: dog
Influenza A virus [4] = test: Potency index, ratio of ribavirin EC99 to compound EC99 for Influenza A virus (A/PR/8/1934(H1N1)) infected in MDCK cells; type: functional, A/Puerto Rico/8/1934(H1N1)
[5] = Cytotoxicity against HEK293T cells assessed as cell viability measured at 24 hrs by MTS assay; type: cell-based, HEK-293T; conditions: human
Influenza A virus [6] = test: Antiviral activity against Influenza A virus (A/PR/8/1934(H1N1)) infected in HEK293T cells assessed as reduction in viral RNP reconstitution measured at 24 hrs by luciferase reporter gene assay; type: functional, organism-based; conditions: A/Puerto Rico/8/1934(H1N1), HEK-293T
Influenza A virus [7] = test: Antiviral activity against Influenza A virus (A/PR/8/1934(H1N1)) infected in MDCK cells assessed as 2-log10 reduction in viral RNA copy number after 24 hrs by quantitative RT-PCR analysis; type: functional; conditions: A/Puerto Rico/8/1934(H1N1)
Influenza A virus [8] = test: Potency index, ratio of ribavirin EC90 to compound EC90 for Influenza A virus (A/PR/8/1934(H1N1)) infected in MDCK cells; type: functional, A/Puerto Rico/8/1934(H1N1)

**Q.** With O=C(O)CC1C(=O)NCCN1CCCc1ccccc1 (configuration not stated) as the compound, how does the pIC50 [1] read?
**A.** < 3.30

**Q.** What does the source list for O=C(NCCc1ccc(O)c(O)c1)c1cc2cc(O)c(O)cc2[nH]1?
**A.** pIC50 [1]: 6.03; pEC50 (Influenza A virus [2]): 5.49; CC50 at 24 h [3]: ≥ 50 µM; Ratio (Influenza A virus [4]): 2; CC50 at 24 h [5]: 110 µM; pEC50 (Influenza A virus [6]): 4.80; EC99 (Influenza A virus [7]): 5.7 µM; Ratio (Influenza A virus [8]): 2

**Q.** With O=C(O)C1C(C(=O)O)C(C(=O)O)C(C(=O)O)C(C(=O)O)C1C(=O)O (configuration not stated) as the compound, how does the pIC50 [1] read?
**A.** < 3.30

**Q.** With Cc1nc(SCc2ccccc2)nc(O)c1CC(=O)O as the compound, how does the pIC50 [1] read?
**A.** < 3.30

**Q.** With CNC(=O)c1cccc(Nc2nc(O)nc(O)c2C#N)c1 as the compound, how does the pIC50 [1] read?
**A.** < 3.30

**Q.** With O=C(O)c1nccnc1C(=O)Nc1nc(-c2cccs2)n[nH]1 as the compound, how does the pIC50 [1] read?
**A.** < 3.30

**Q.** With Cc1cc(NC(=O)c2c(O)nc(O)[nH]c2=O)no1 as the compound, how does the pIC50 [1] read?
**A.** < 3.30

**Q.** With O=C(O)CCc1nn2c(nc1O)nc1ccccc12 as the compound, how does the pIC50 [1] read?
**A.** < 3.30

**Q.** With O=C(O)CCc1nnc(SCc2ccc(Cl)cc2)nc1O as the compound, how does the pIC50 [1] read?
**A.** < 3.30

**Q.** With COc1cc2nc(N3CCOCC3)nc(N)c2cc1OC as the compound, how does the pIC50 [1] read?
**A.** < 3.30

**Q.** With O=C(NCCCNC(=O)c1cc2cc(O)c(O)cc2[nH]1)c1cc2ccccc2[nH]1 as the compound, how does the pIC50 [1] read?
**A.** 4.19

**Q.** What about the pEC50 (Influenza A virus [2]) of the same compound?
**A.** 4.49

**Q.** What about the CC50 at 24 h [3] of the same compound?
**A.** > 200 µM

**Q.** What about the CC50 at 24 h [5] of the same compound?
**A.** > 200 µM

**Q.** What about the pEC50 (Influenza A virus [6]) of the same compound?
**A.** 4.19

**Q.** What about the EC99 (Influenza A virus [7]) of the same compound?
**A.** 73 µM

**Q.** With O=C(CC(=O)Nc1ccccc1)NNc1ccc([N+](=O)[O-])cc1 as the compound, how does the pIC50 [1] read?
**A.** < 3.30

**Q.** With Cc1cc(=O)oc2n[nH]c(C)c12 as the compound, how does the pIC50 [1] read?
**A.** < 3.30

**Q.** What does the source list for O=C(NCCCCNC(=O)c1cc2cc(O)c(O)cc2[nH]1)c1cc2cc(O)c(O)cc2[nH]1?
**A.** pIC50 [1]: 5.15; pEC50 (Influenza A virus [2]): 5.20; CC50 at 24 h [3]: > 200 µM; CC50 at 24 h [5]: > 200 µM; pEC50 (Influenza A virus [6]): 4.62; EC99 (Influenza A virus [7]): 12 µM

**Q.** With CCOC(=O)c1c(O)c2cc(OC)ccc2n(C)c1=O as the compound, how does the pIC50 [1] read?
**A.** < 3.30

**Q.** With O=C(O)/C(O)=C/C(=O)C1(Cc2ccc(Cl)cc2)CCN(Cc2ccccc2)CC1 as the compound, how does the pIC50 [1] read?
**A.** 6.32

**Q.** And the pEC50 (Influenza A virus [2])?
**A.** 5.27

**Q.** What about the CC50 at 24 h [3] of the same compound?
**A.** 181 µM

**Q.** And the CC50 at 24 h [5]?
**A.** > 100 µM

**Q.** What about the pEC50 (Influenza A virus [6]) of the same compound?
**A.** 5.47

**Q.** What about the EC99 (Influenza A virus [7]) of the same compound?
**A.** 8.4 µM

**Q.** For NC(=O)c1ncn([C@@H]2O[C@H](CO)[C@@H](O)[C@H]2O)n1 [RIBAVIRIN], which CC50 at 24 h [3] is on record?
**A.** > 200 µM

**Q.** And the CC50 at 24 h [5]?
**A.** > 200 µM

**Q.** And the pEC50 (Influenza A virus [6])?
**A.** 5.08

**Q.** What about the EC99 (Influenza A virus [7]) of the same compound?
**A.** 11 µM
